Literature values in patent publication US11260065B2, “Storage-stable ready-to-use injectable formulations of thiotepa” (RK Pharma Solutions LLC, priority 2018, dated 2022).

Experiments:
[1] = water and organic solvents
[2] = acid medium

## S=P(N1CC1)(N1CC1)N1CC1 [Thiotepa, tris(1-aziridinyl)phosphine sulfide]
[1]
  Solubility: soluble in water and organic solvents
[2]
  Stability: unstable in acid medium
